Laboratory results: US20180037595A1, “BENZOXABOROLE COMPOUNDS AND USES THEREOF” (GLAXOSMITHKLINE INTELLECTUAL PROPERTY (NO.2) LIMITED, priority 2015, published 2018)
Converted amounts (≈) assume the structure as drawn. Structures can show the parent of a compound that is named as a salt. Where two headings read alike, the source gives them in different places.

Tests used:
HepG2 cells = experiment: HepG2 cytotoxicity assay (resazurin); type: cell-based
P. aeruginosa PA01 = experiment: General antimicrobial activity assay (CLSI broth microdilution); type: cell-based; details: Pseudomonas aeruginosa, PA01, read-out: MIC: P. aeruginosa PA01
Description: (§1) Whole-cell antimicrobial activity was determined by broth microdilution using the Clinical and Laboratory Standards Institute (CLSI) recommended procedure, Document M7-A7, “Methods for Dilution Susceptibility Tests for Bacteria that Grow Aerobically”.

A. baumannii ATCC 17978 = experiment: as above; type: cell-based; details: Acinetobacter baumannii, ATCC17978, read-out: MIC: A. baumannii ATCC 17978
Description: as §1

E. coli K12 tolC::Tn10 = experiment: as above; type: cell-based; details: Escherichia coli, read-out: MIC: E. coli K12 tolC::Tn10
Description: as §1

E. coli K12 = experiment: as above; type: cell-based; details: Escherichia coli, K12, read-out: MIC: E. coli K12
Description: as §1

Mtb LeuRS = Mtb LeuRS (Mycobacterium tuberculosis, UniProt P9WFV1); experiment: LeuRS aminoacylation assay, IC50 determination; type: biochemical, M. tuberculosis; details: read-out: Mtb LeuRS IC50
Chain of Mtb LeuRS (P9WFV1 whole entry): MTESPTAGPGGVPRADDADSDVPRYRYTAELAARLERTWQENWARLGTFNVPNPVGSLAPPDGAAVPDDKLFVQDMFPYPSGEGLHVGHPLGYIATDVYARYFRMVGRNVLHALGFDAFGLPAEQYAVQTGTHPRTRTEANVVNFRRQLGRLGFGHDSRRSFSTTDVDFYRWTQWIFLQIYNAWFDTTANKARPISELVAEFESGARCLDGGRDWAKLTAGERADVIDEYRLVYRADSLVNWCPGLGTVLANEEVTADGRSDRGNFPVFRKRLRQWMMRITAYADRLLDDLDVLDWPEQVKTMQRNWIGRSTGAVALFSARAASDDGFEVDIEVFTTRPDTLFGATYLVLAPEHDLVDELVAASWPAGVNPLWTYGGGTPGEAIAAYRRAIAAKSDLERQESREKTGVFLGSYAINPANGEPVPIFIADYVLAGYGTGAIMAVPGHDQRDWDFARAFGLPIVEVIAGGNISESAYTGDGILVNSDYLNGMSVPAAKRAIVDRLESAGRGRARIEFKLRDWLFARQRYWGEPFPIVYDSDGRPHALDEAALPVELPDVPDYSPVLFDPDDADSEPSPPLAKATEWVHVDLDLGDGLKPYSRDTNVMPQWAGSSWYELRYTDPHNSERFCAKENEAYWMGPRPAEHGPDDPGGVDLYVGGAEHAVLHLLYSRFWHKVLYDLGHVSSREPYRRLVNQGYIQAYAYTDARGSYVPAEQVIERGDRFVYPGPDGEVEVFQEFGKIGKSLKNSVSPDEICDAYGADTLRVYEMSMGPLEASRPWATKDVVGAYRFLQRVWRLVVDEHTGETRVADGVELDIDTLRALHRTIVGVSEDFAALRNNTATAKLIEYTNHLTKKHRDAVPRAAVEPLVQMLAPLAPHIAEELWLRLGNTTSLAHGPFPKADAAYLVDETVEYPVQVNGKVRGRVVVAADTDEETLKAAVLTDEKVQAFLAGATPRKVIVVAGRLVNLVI
Description: For biochemical analyses an N-terminal six histidine-tagged LeuRS was over-expressed in Escherichia coli which were E. coli codon-optimised (GenScript, Piscataway N.J., USA), from human mitochondria and cytoplasm, and M. tuberculosis. N-terminal six histidine-tagged LeuRS proteins were over-expressed and purified according to Novagen (Madison, Wis., USA) using an E. coli BL21(DE3) T7 RNA polymerase over-expression strain.
Experiments were performed in 96-well microtiter plates, using 80 μL reaction mixtures containing 50 mM HEPES-KOH (pH 8.0), 30 mM MgCl2 30 mM KCl, 13 μM L-[^14C]leucine (306 mCi/mmol, Perkin-Elmer), 15 uM total E. coli tRNA (Roche, Switzerland), 0.02% (w/v) BSA, 1 mM DTT, 0.2 μM LeuRS and 4 mM ATP at 30° C. Reactions were started by the addition of 4 mM ATP. After 7 minutes, reactions were quenched and tRNA was precipitated by the addition of 50 μL of 10% (w/v) TCA and transferred to 96-well nitrocellulose membrane filter plates (Millipore Multiscreen HTS, MSHAN4B50). Each well was then washed three times with 100 μL of 5% TCA. Filter plates were then dried under a heat lamp and the precipitated L-[^14C]leucine tRNALeu were quantified by liquid scintillation counting using a Wallac MicroBeta Trilux model 1450 liquid scintillation counter (PerkinElmer, Waltham, Mass., USA). The only difference was with the human cytoplasmic LeuRS when we used tRNA isolated from Brewer's Yeast (Roche Diagnostics GmbH).
Reactions were initiated by the addition of 4 mM ATP. Reactions were stopped after 7 minutes then precipitated and counted to quantify radioactivity. IC50 values were determined using the Graphpad Prism software package (Graphpad Software Inc. (La Jolla, Calif., USA).

[1] = system: M. tuberculosis standard strain Mtb H37Rv; experiment: MIC determination against mycobacteria (resazurin microtiter assay); type: cell-based, Mycobacterium tuberculosis; details: for Selectivity Index (A/B): HepG2 cell 48 h Tox50 (A) / Mtb H37Rv MIC (B); for MIC: Mycobacterium tuberculosis, H37RV, read-out: Mtb H37Rv MIC (B)
Human cyto LeuRS = Human cyto LeuRS (Homo sapiens, UniProt Q9P2J5); experiment: LeuRS aminoacylation assay, IC50 determination; type: biochemical
Chain of Human cyto LeuRS (Q9P2J5 whole entry): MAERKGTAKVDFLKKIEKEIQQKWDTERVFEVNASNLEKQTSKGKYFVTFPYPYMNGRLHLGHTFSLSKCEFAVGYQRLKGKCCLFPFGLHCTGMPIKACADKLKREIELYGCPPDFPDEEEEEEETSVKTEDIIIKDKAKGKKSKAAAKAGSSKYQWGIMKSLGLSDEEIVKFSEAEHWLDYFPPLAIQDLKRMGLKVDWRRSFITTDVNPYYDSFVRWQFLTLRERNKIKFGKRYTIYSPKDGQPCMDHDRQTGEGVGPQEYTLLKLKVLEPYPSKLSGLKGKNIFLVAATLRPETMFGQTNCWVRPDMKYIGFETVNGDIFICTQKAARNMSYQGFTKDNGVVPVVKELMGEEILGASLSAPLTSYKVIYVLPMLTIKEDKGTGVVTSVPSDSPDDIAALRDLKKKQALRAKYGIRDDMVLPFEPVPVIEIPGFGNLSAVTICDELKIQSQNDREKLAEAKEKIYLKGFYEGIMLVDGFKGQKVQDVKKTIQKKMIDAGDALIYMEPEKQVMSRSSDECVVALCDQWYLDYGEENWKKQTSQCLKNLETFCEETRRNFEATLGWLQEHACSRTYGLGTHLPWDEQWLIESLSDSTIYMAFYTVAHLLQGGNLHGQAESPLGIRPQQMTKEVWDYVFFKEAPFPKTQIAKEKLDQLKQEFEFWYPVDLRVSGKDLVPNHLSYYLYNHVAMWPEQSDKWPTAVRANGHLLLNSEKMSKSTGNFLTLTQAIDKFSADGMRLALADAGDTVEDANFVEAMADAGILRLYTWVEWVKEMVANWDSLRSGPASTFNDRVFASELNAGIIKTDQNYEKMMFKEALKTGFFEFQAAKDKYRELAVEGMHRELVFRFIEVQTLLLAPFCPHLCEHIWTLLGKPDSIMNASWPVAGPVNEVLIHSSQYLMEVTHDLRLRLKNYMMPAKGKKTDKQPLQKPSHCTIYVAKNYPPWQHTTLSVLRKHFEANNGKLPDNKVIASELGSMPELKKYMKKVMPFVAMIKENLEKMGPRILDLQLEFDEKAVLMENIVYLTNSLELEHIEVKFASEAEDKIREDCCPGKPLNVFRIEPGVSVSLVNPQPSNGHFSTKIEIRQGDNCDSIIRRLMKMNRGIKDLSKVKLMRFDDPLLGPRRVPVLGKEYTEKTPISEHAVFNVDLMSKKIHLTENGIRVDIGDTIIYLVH

[2] = Homo sapiens, HepG2, 48 h, read-out: HepG2 cell 48 h Tox50 (A)

Row | SMILES | IC50 (HepG2 cells; [2]) | MIC (P. aeruginosa PA01) | MIC (A. baumannii ATCC 17978) | MIC (E. coli K12 tolC::Tn10) | MIC (E. coli K12) | IC50 (Mtb LeuRS) | Selectivity Index (A/B) [1] | MIC [1] | further results
1 | CC1(C)COc2cccc3c2B(OC3CN)O1 (centres unmarked) [Example C12-H, reference compound] | 24.5 µM | 16 µg/mL (≈ 68.6 µM) | 4 µg/mL (≈ 17.2 µM) | 2 µg/mL (≈ 8.58 µM) | 4 µg/mL (≈ 17.2 µM) | 1330 nM | >4.9 | > 5 µM | 
2 | CC1COc2cccc3c2B(O1)OC3CN (centres unmarked) [Example C11-H, reference compound] | > 50 µM | 2 µg/mL (≈ 9.13 µM) | 4 µg/mL (≈ 18.3 µM) | 2 µg/mL (≈ 9.13 µM) | 2 µg/mL (≈ 9.13 µM) | 510 nM | >32 |  | 
3 | Cl.NCC1OB2OCCOc3ccc(Cl)c1c32 (racemic) [Example 3, 3-chloro-7,8-dihydro-2H-1,6,9-trioxa-9a-borabenzo[cd]azulen-2-yl)methanamine hydrochloride] | > 50 µM |  |  |  |  | 244 nM |  | 0.47 µM | 
4 | CC1(C)COc2ccc(Cl)c3c2B(OC3CN)O1.Cl (centres unmarked) [Example 11, (3-chloro-8,8-dimethyl-7,8-dihydro-2H-1,6,9-trioxa-9a-borabenzo[cd]azulen-2-yl)methanamine hydrochloride] | > 50 µM | > 64 µg/mL | > 64 µg/mL | > 64 µg/mL | > 64 µg/mL | 680 nM |  | 0.27 µM | Selectivity Index (A/B) ([1]; listed as EXAMPLE 11 G11-Cl, hydrochloride): >185; Selectivity Index (A/B) ([1]; listed as Example 11 G11-CI, hydrochloride): > 185; IC50 (Human cyto LeuRS): > 300 µM
5 | NCCOc1cccc2c1B(O)OC2 [Example C3-H, reference compound] |  |  |  |  |  | 17600 nM | >0.8 |  | IC50 (HepG2 cells; Homo sapiens, HepG2, 48 h; read-out: HepG2 cell 48 h Tox50 (A)): > 50 µM; IC50 (Human cyto LeuRS): 35.7 µM
6 | CC1(C)COB2OC(CN)c3c(Cl)ccc(c32)O1 (centres unmarked) [Example C9-Cl, reference compound] | > 50 µM |  |  |  |  | 37600 nM | >10 |  | Selectivity Index (A/B) ([1]; listed as C9-CI): 10
7 | C[C@]1(CO)COc2ccc(Br)c3c2B(O[C@@H]3CN)O1 [Example 17, ((2S,8S, or 2R,8R)-2-(aminomethyl)-3-bromo-8-methyl-7,8-dihydro-2H-1,6,9-trioxa-9a-borabenzo[cd]azulen-8-yl)methanol] | > 50 µM |  |  |  |  | 1970 nM | >50 | 0.925 µM (≈ 0.303 µg/mL) | 
8 | C[C@@]1(CO)COc2ccc(Cl)c3c2B(OC3CN)O1 (single isomer, unassigned) [Example 14, ((2S,8R or 2R,8S)-2-(aminomethyl)-3-chloro-8-methyl-7,8-dihydro-2H-1,6,9-trioxa-9a-borabenzo[cd]azulen-8-yl)methanol] | > 50 µM |  |  |  |  | 4170 nM | >4 | 1.25 µM (≈ 0.354 µg/mL) | 
9 | CC1(C)COc2ccc(Br)c3c2B(O[C@@H]3CN)O1.Cl [Example 10, (S)-(3-bromo-8,8-dimethyl-7,8-dihydro-2H-1,6,9-trioxa-9a-borabenzo[cd]azulen-2-yl)methanamine hydrochloride] | 460 µM | > 64 µg/mL | > 64 µg/mL | > 64 µg/mL | > 64 µg/mL | 1130 nM |  | 0.16 µM | IC50 (Human cyto LeuRS): > 300 µM
10 | C[C@@]1(CO)COc2ccc(Br)c3c2B(OC3CN)O1 (stereo partly drawn) [Example 16, ((2S,8R, or 2R,8S)-2-(aminomethyl)-3-bromo-8-methyl-7,8-dihydro-2H-1,6,9-trioxa-9a-borabenzo[cd]azulen-8-yl)methanol] | > 50 µM |  |  |  |  | 2690 nM | >40 | 1.25 µM (≈ 0.41 µg/mL) | 
11 | Cl.NC[C@H]1OB2O[C@H](CO)COc3ccc(F)c1c32 [Example 13, ((2S,8R)-2-(aminomethyl)-3-fluoro-7,8-dihydro-2H-1,6,9-trioxa-9a-borabenzo[cd]azulen-8-yl)methanol hydrochloride] | > 50 µM |  |  |  |  | 480 nM | >10 | 0.55 µM | 
12 | CC1(C)COc2c(Cl)ccc3c2B(OC3CN)O1 (centres unmarked) [Example C8-Cl, reference compound] | > 50 µM |  |  |  |  | 6050 nM | 10 | > 5 µM | 
13 | NC[C@H]1OB2OCCOc3c(Cl)ccc1c32 [Example C13-Cl, reference compound] | > 50 µM |  |  |  |  |  | >10 |  | 
14 | CC1COc2c(Cl)cc(Cl)c3c2B(O1)OC3CN (centres unmarked) [Example C7-Cl2, reference compound] | > 50 µM |  |  |  |  | 7970 nM | >20 |  | 
15 | CC1COc2ccc(Br)c3c2B(O1)OC3CN.Cl (centres unmarked) [Example 8, (3-bromo-8-methyl-7,8-dihydro-2H-1,6,9-trioxa-9a-borabenzo[cd]azulen-2-yl)methanamine hydrochloride] | > 50 µM | > 64 µg/mL | > 64 µg/mL | > 64 µg/mL | > 64 µg/mL | 1430 nM | >167 | 0.3 µM | IC50 (Human cyto LeuRS): > 300 µM
16 | CC1(C)COB2OC(CN)c3cccc(c32)O1 (centres unmarked) [Example C10-H, reference compound] | > 50 µM |  |  |  |  | > 300000 nM |  | > 5 µM | 
17 | Cl.NCC1OB2OCCOc3ccc(Br)c1c32 (racemic) [Example 1, 3-bromo-7,8-dihydro-2H-1,6,9-trioxa-9a-borabenzo[cd]azulen-2-yl)methanamine hydrochloride] | > 50 µM |  |  |  |  | 154 nM |  | 0.18 µM | 
18 | Cl.NCC1OB2OCCOc3ccc(Cl)c1c32 (racemic) [Example 3] |  | > 64 µg/mL | > 64 µg/mL | > 64 µg/mL | > 64 µg/mL |  |  |  | Selectivity Index (A/B) ([1]; listed as EXAMPLE 3 G3-Br, hydrochloride): >106; Selectivity Index (A/B) ([1]; listed as Example 3 G3-CI, hydrochloride): > 106
19 | C[C@]1(CO)COc2ccc(Cl)c3c2B(OC3CN)O1 (stereo partly drawn) [Example 15, ((2S,8S, or 2R,8R)-2-(aminomethyl)-3-chloro-8-methyl-7,8-dihydro-2H-1,6,9-trioxa-9a-borabenzo[cd]azulen-8-yl)methanol] | > 50 µM |  |  |  |  | 3130 nM | >50 | 0.93 µM (≈ 0.264 µg/mL) | 
20 | c1cc2c3c(c1)OCCOB3OC2 [Example C1-H, reference compound] |  |  |  |  |  | 12200 nM |  |  | IC50 (Human cyto LeuRS): 101 µM
21 | NC[C@H]1OB2OCCOc3ccc(I)c1c32 [Example 6, (S)-(3-iodo-7,8-dihydro-2H-1,6,9-trioxa-9a-borabenzo[cd]azulen-2-yl)methanamine hydrochloride] | 36.4 µM |  |  |  |  | 330 nM |  | 0.3 µM | 
22 | Cl.NCC1OB2OCCOc3ccc(F)c1c32 (centres unmarked) [Example 5, (3-fluoro-7,8-dihydro-2H-1,6,9-trioxa-9a-borabenzo[cd]azulen-2-yl)methanamine hydrochloride)] | 49.1 µM |  |  |  |  | 460 nM |  | 0.6 µM | 
23 | Cl.NCC1OB2OCCOc3ccc(Br)c1c32 (racemic) [Example 1] |  | > 64 µg/mL | > 64 µg/mL | > 64 µg/mL | > 64 µg/mL |  |  |  | Selectivity Index (A/B) ([1]; listed as EXAMPLE 1 G1-Br, hydrochloride): >277; Selectivity Index (A/B) ([1]; listed as Example 1 G1-Br, hydrochloride): > 277
24 | NC[C@H]1OB2OCCOc3c(Cl)cc(Cl)c1c32 [Example C14-Cl2, reference compound] | > 50 µM |  |  |  |  | 4670 nM | >10 | > 5 µM | 
25 | Cl.NCC1OB2OCCOc3ccc(F)c1c32 (centres unmarked) [Example 5] |  | 4 µg/mL | > 64 µg/mL | 64 µg/mL | 32 µg/mL |  |  |  | 
